Assay results reported in article PMC10714399, “Open Source Antibiotics: Simple Diarylimidazoles Are Potent against Methicillin-Resistant Staphylococcus aureus” (ACS Infectious Diseases, 2023).
≈ marks a conversion by molar mass, not a printed value. Where “and” joins values, the source holds several entries; their conditions need not be identical. Identical values can stand only once.

tested on: Enterococcus faecalis ATCC 51299 (vanA-positive; vancomycin-resistant); assay: In vitro antibacterial activity, MIC (UCL), VRE; format: cell-based; details: not given
Protocol: Staphylococcus aureus NCTC 13373 (mecA-positive; methicillin-resistant, NCTC 13373) was supplied by the National Collection of Type Cultures (NCTC), Public Health England, United Kingdom. Other organisms, S. aureus ATCC 25923 (methicillin-susceptible) and Enterococcus faecalis ATCC 51299 (vanA-positive; vancomycin-resistant), were obtained from the American Type Culture Collection (ATCC) via LGC Standards, UK. A suspension of each organism was prepared from an overnight plate culture (tryptone soya agar) in phosphate-buffered saline (PBS) and adjusted to an absorbance reading at 600 nm of 0.1, which is approximately equivalent to 1 × 10^8 colony-forming units (CFU) per mL. The cultures were further diluted 1:100 in isosensitest broth (Oxoid, United Kingdom) before 100 μL was used to inoculate each well of a 96-well plate that contained diluted samples of the OSA series. Compounds were evaluated over a 2-fold dilution range from 32 to 0.03 μg/mL. Stocks of the samples were prepared in 100% DMSO at […] before being diluted in isosenstitest broth. The highest concentration of DMSO present was 2%, which has been previously shown not to inhibit the growth of the microorganisms (data not shown). […] Vancomycin was used as a quality control compound.

VRE MIC [µg/mL] | Structure (SMILES)
> 32 | COc1ccn2c(Nc3ccccc3F)c(-c3cnn(C)c3)nc2c1 [compound 855]
> 32 | COc1ccn2cc(-c3ccccn3)nc2c1 [compound 856]
> 32 | COc1ccn2c(-c3ccc(F)cc3)c(-c3ccccn3)nc2c1 [compound 858]
32 | COc1ccn2c(-c3ccccc3)c(-c3ccccn3)nc2c1 [compound 860]

same assay, conditions: read-out: VRE MIC

Structure (SMILES) | MIC [µg/mL]
CS(=O)(=O)c1ccc(-c2c(-c3ccccn3)nc3n2CCC3)cc1 [compound 837] | > 32
N#Cc1ccc(-c2c(-c3ccccn3)nc3n2CCC3)cc1 [compound 975] | 16 (≈ 55.9 µM)

The remaining lines, values ahead:

MIC [µg/mL] | Structure (SMILES)
> 32 | C[S+]([O-])c1ccc(-c2c(-c3ccccn3)nc3n2CCC3)cc1 (stereo not shown) [compound 838]
> 32 | Fc1cccc(-c2c(-c3ccccn3)nc3n2CCC3)c1 [compound 872]
16 (≈ 54.1 µM) | Clc1ccc(-c2c(-c3ccccn3)nc3n2CCC3)cc1 [compound 875]
> 32 | CN(C)C(=O)c1ccc(-c2c(-c3ccccn3)nc3n2CCC3)cc1 [compound 974]

same assay, conditions: read-out: VRE MIC (UCL)

MIC [µg/mL] | Structure (SMILES)
> 32 | CS(=O)(=O)c1ccc(-c2c(-c3ccccn3)nc3n2CCC3)cc1 [OSA_000837]
> 32 | C[S+]([O-])c1ccc(-c2c(-c3ccccn3)nc3n2CCC3)cc1 (stereo not shown) [OSA_000838]
> 32 | N#Cc1cccc(-c2c(-c3ccccn3)nc3n2CCC3)c1 [OSA_000864]

tested on: PMM (primary mouse macrophages); assay: Toxicity against PMM; format: cell-based; details: not given
Protocol: (§1) ADME and toxicity for compounds were measured according to procedures outlined in the manuscript submitted in parallel to this one;2 other procedures were used for those compounds analysed by Monash University (in vitro ADME) or UCL (toxicity), both described in the main

Structure (SMILES) | PMM TC50 [µg/mL]
COc1ccn2c(Nc3ccccc3F)c(-c3cnn(C)c3)nc2c1 [compound 855] | 21.6
COc1ccn2cc(-c3ccccn3)nc2c1 [compound 856] | 14.4
COc1ccn2c(-c3ccc(F)cc3)c(-c3ccccn3)nc2c1 [compound 858] | 2.6
COc1ccn2c(-c3ccccc3)c(-c3ccccn3)nc2c1 [compound 860] | 2.4
Fc1cccc(-c2c(-c3ccccn3)nc3n2CCC3)c1 [compound 872] | 15.3
Clc1ccc(-c2c(-c3ccccn3)nc3n2CCC3)cc1 [compound 875] | 2.4
N#Cc1ccc(-c2c(-c3ccccn3)nc3n2CCC3)cc1 [compound 975] | 18.3

tested on: Staphylococcus aureus NCTC 13373 (mecA-positive; methicillin-resistant); assay: In vitro antibacterial activity, MIC (UCL School of Pharmacy assay), MRSA; format: cell-based; details: not given
How it was run: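 Two-fold dilution MIC testing, 32–0.03 μg/mL, isosensitest broth medium. Cultures standardized by absorbance at 600 nm (0.1, ~1 × 10^8 CFU/mL) before 1:100 dilution; vancomycin included for quality control.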

Structure (SMILES) | MRSA MIC | activity against MRSA, in words
CS(=O)(=O)c1ccc(-c2c(-c3ccccn3)nc3n2CCC3)cc1 [compound 837] | – | not tolerated
COc1ccn2c(Nc3ccccc3F)c(-c3cnn(C)c3)nc2c1 [compound 855] | > 32 µg/mL and 32 µg/mL | –
COc1ccn2cc(-c3ccccn3)nc2c1 [compound 856] | > 32 µg/mL and 32 µg/mL | –
COc1ccn2c(-c3ccc(F)cc3)c(-c3ccccn3)nc2c1 [compound 858] | 16 µg/mL | –
CN(C)C(=O)c1ccc(-c2c(-c3ccccn3)nc3n2CCC3)cc1 [compound 974] | – | not tolerated

Second part, led by results:

MRSA MIC | Structure (SMILES) | activity against MRSA, in words
8 µg/mL | COc1ccn2c(-c3ccccc3)c(-c3ccccn3)nc2c1 [compound 860] | –
32 µg/mL | Fc1cccc(-c2c(-c3ccccn3)nc3n2CCC3)c1 [compound 872] | –

same assay, conditions: Staphylococcus aureus, 16 h; read-out: MRSA MIC

Structure (SMILES) | MIC [µg/mL]
CS(=O)(=O)c1ccc(-c2c(-c3ccccn3)nc3n2CCC3)cc1 [compound 837] | > 32
N#Cc1ccc(-c2c(-c3ccccn3)nc3n2CCC3)cc1 [compound 975] | 4 (≈ 14 µM)

Now from value to compound:

MIC [µg/mL] | Structure (SMILES)
> 32 | C[S+]([O-])c1ccc(-c2c(-c3ccccn3)nc3n2CCC3)cc1 (stereo not shown) [compound 838]
> 32 | CN(C)C(=O)c1ccc(-c2c(-c3ccccn3)nc3n2CCC3)cc1 [compound 974]

same assay, conditions: Staphylococcus aureus, UCL; read-out: MRSA MIC (UCL)

MIC [µg/mL] | Structure (SMILES)
> 32 | CS(=O)(=O)c1ccc(-c2c(-c3ccccn3)nc3n2CCC3)cc1 [OSA_000837]
> 32 | C[S+]([O-])c1ccc(-c2c(-c3ccccn3)nc3n2CCC3)cc1 (stereo not shown) [OSA_000838]
> 32 | N#Cc1cccc(-c2c(-c3ccccn3)nc3n2CCC3)c1 [OSA_000864]

same assay, conditions: Staphylococcus aureus; read-out: MRSA MIC

Structure (SMILES) | MIC [µg/mL]
CS(=O)(=O)c1ccc(-c2c(-c3ccccn3)nc3n2CCC3)cc1 [compound 837] | > 32
N#Cc1ccc(-c2c(-c3ccccn3)nc3n2CCC3)cc1 [compound 975] | 4 (≈ 14 µM)

Continued, values first:

MIC [µg/mL] | Structure (SMILES)
> 32 | C[S+]([O-])c1ccc(-c2c(-c3ccccn3)nc3n2CCC3)cc1 (stereo not shown) [compound 838]
> 32 | Fc1cccc(-c2c(-c3ccccn3)nc3n2CCC3)c1 [compound 872]
4 (≈ 13.5 µM) | Clc1ccc(-c2c(-c3ccccn3)nc3n2CCC3)cc1 [compound 875]
> 32 | CN(C)C(=O)c1ccc(-c2c(-c3ccccn3)nc3n2CCC3)cc1 [compound 974]

tested on: not listed separately; assay: Human plasma protein binding (PPB); format: in vitro ADME; details: human, plasma, human plasma, NEU; read-out: Human PPB (NEU) (converted)
Text: (§2) To guide our initial SAR exploration work, we obtained liver microsomal intrinsic clearance data for 5 of the 18 compounds assayed by CO-ADD (Supporting Information - CDCO Report and Supporting Information - Biology). We then acquired intrinsic clearance (CLint), plasma protein binding (PPB), and solubility data on further compounds throughout the SAR campaign (Supporting Information - Biology, Tables S3 and S4).
(§3) Table S4. ADME and Pharmacokinetics: compounds only appearing in the Supplementary […]
(§4) MRSA Aqueous HLM CLint Rat Hep CLint
(§5) Cmpd MIC Solubility Human PPB (%) (µL/min/mg (µL/min/10x6 LogD7.4
(§6) (µg/mL) (µM) protein) cells)
as §1

fraction unbound | Structure (SMILES)
0.4 | CS(=O)(=O)c1ccc(-c2c(-c3ccccn3)nc3n2CCC3)cc1 [OSA_000837]
0.45 | C[S+]([O-])c1ccc(-c2c(-c3ccccn3)nc3n2CCC3)cc1 (stereo not shown) [OSA_000838]
0.24 | N#Cc1cccc(-c2c(-c3ccccn3)nc3n2CCC3)c1 [OSA_000864]

same assay, conditions: human, plasma; read-out: Human PPB (converted)

Structure (SMILES) | fraction unbound
CS(=O)(=O)c1ccc(-c2c(-c3ccccn3)nc3n2CCC3)cc1 [compound 837] | 0.4
N#Cc1ccc(-c2c(-c3ccccn3)nc3n2CCC3)cc1 [compound 975] | 0.29

Next, values leading:

fraction unbound | Structure (SMILES)
0.45 | C[S+]([O-])c1ccc(-c2c(-c3ccccn3)nc3n2CCC3)cc1 (stereo not shown) [compound 838]
0.55 | CN(C)C(=O)c1ccc(-c2c(-c3ccccn3)nc3n2CCC3)cc1 [compound 974]

tested on: not listed separately; assay: Human liver microsome intrinsic clearance; format: in vitro ADME; details: human liver microsomes, NEU
Text: as §2, §3, §4, §5, §6, §1

HLM CLint (NEU) [uL/min/mg protein] | Structure (SMILES)
<3 | CS(=O)(=O)c1ccc(-c2c(-c3ccccn3)nc3n2CCC3)cc1 [OSA_000837]
<3 | C[S+]([O-])c1ccc(-c2c(-c3ccccn3)nc3n2CCC3)cc1 (stereo not shown) [OSA_000838]
43.7 | N#Cc1cccc(-c2c(-c3ccccn3)nc3n2CCC3)c1 [OSA_000864]

same assay, conditions: human, liver microsomes; read-out: HLM CLint

microsomal CLint [µL/min/mg] | Structure (SMILES)
< 3 | CS(=O)(=O)c1ccc(-c2c(-c3ccccn3)nc3n2CCC3)cc1 [compound 837]
< 3 | C[S+]([O-])c1ccc(-c2c(-c3ccccn3)nc3n2CCC3)cc1 (stereo not shown) [compound 838]
< 3 | CN(C)C(=O)c1ccc(-c2c(-c3ccccn3)nc3n2CCC3)cc1 [compound 974]

tested on: MRC-5SV2 (human lung fibroblast cell line); assay: Toxicity against MRC-5SV2; format: cell-based; details: not given
Protocol: as §1

Structure (SMILES) | MRC5 TC50 [µg/mL]
COc1ccn2c(Nc3ccccc3F)c(-c3cnn(C)c3)nc2c1 [compound 855] | 21.6
COc1ccn2cc(-c3ccccn3)nc2c1 [compound 856] | 11.6
COc1ccn2c(-c3ccc(F)cc3)c(-c3ccccn3)nc2c1 [compound 858] | 1.2
COc1ccn2c(-c3ccccc3)c(-c3ccccn3)nc2c1 [compound 860] | 1.2
Fc1cccc(-c2c(-c3ccccn3)nc3n2CCC3)c1 [compound 872] | 2.0
Clc1ccc(-c2c(-c3ccccn3)nc3n2CCC3)cc1 [compound 875] | 1.6
N#Cc1ccc(-c2c(-c3ccccn3)nc3n2CCC3)cc1 [compound 975] | 7.4

tested on: not listed separately; assay: Rat hepatocyte intrinsic clearance; format: in vitro ADME; details: rat hepatocytes, NEU
Text: as §2, §3, §4, §5, §6, §1

Rat Hep CLint (NEU) [uL/min/10x6 cells] | Structure (SMILES)
<1 | CS(=O)(=O)c1ccc(-c2c(-c3ccccn3)nc3n2CCC3)cc1 [OSA_000837]
<1 | C[S+]([O-])c1ccc(-c2c(-c3ccccn3)nc3n2CCC3)cc1 (stereo not shown) [OSA_000838]
23.2 | N#Cc1cccc(-c2c(-c3ccccn3)nc3n2CCC3)c1 [OSA_000864]

same assay, conditions: rat, hepatocytes; Figure 4; read-out: Rat Hep CLint

hepatocyte CLint [µL/min/1e6 cells] | Structure (SMILES)
< 1 | CS(=O)(=O)c1ccc(-c2c(-c3ccccn3)nc3n2CCC3)cc1 [compound 837]
< 1 | C[S+]([O-])c1ccc(-c2c(-c3ccccn3)nc3n2CCC3)cc1 (stereo not shown) [compound 838]
< 1 | CN(C)C(=O)c1ccc(-c2c(-c3ccccn3)nc3n2CCC3)cc1 [compound 974]

tested on: not listed separately; assay: Aqueous solubility; format: physicochemical; details: NEU
Text: as §2, with “S4). […] The more polar compounds (lower LogD) had reduced PPB and were more metabolically stable.” for “S4).”
as §3, §4, §5, §6, §1

Aqueous Solubility (NEU) [µM] | Structure (SMILES)
317 | CS(=O)(=O)c1ccc(-c2c(-c3ccccn3)nc3n2CCC3)cc1 [OSA_000837]
756 | C[S+]([O-])c1ccc(-c2c(-c3ccccn3)nc3n2CCC3)cc1 (stereo not shown) [OSA_000838]

same assay, conditions: thermodynamic from solid; NEU; read-out: Aqueous Solubility (NEU)

solubility [µM] | Structure (SMILES)
37 (≈ 10.6 µg/mL) | N#Cc1cccc(-c2c(-c3ccccn3)nc3n2CCC3)c1 [OSA_000864]

same assay, conditions: thermodynamic from solid; read-out: Aqueous Solubility

Structure (SMILES) | solubility [µM]
CS(=O)(=O)c1ccc(-c2c(-c3ccccn3)nc3n2CCC3)cc1 [compound 837] | 317 (≈ 108 µg/mL)
N#Cc1ccc(-c2c(-c3ccccn3)nc3n2CCC3)cc1 [compound 975] | 38 (≈ 10.9 µg/mL)

Continued, values first:

solubility [µM] | Structure (SMILES)
756 (≈ 245 µg/mL) | C[S+]([O-])c1ccc(-c2c(-c3ccccn3)nc3n2CCC3)cc1 (stereo not shown) [compound 838]
782 (≈ 260 µg/mL) | CN(C)C(=O)c1ccc(-c2c(-c3ccccn3)nc3n2CCC3)cc1 [compound 974]
